As a reminder, the melting point is the temperature of the solid-liquid transition. In general, IC50 refers to the point on the concentration scale where inhibition reaches its midpoint.

Results on 27 compounds are retold here after US8889696B2, “Substituted pyrido[2,3-d]pyrimidin-7(8H)-ones and therapeutic uses thereof” (Temple University—Of The Commonwealth System Of Higher …, priority 2009, dated 2014).

Data set [1] has as its system K562 (chronic myelogenous leukemia). As to the kind of experiment: Effect on tumor cell lines (Latham assay), K562. Type of data set: cell-based. As to conditions: Homo sapiens; K562 cells, examined 96 hours after treatment; read-out: Potencies (IC50) K 562. The protocol:
(§1) The plated cells were treated 24 hours later with a compound of the invention dissolved in DMSO at multiple concentrations ranging from 0.01 μM to 100 μM. […] When necessary, the total number of viable cells was determined by trypsinizing the wells and counting the number of viable cells, as determined by trypan blue exclusion, using a hemacytometer.

The subject of another data set is DU145 (prostate cancer). The experiment in a line: Effect on tumor cell lines (Latham assay), DU145. Particulars: Homo sapiens, DU-145; DU145 cells, examined 96 hours after treatment; read-out: Potencies (IC50) DU 145. Type of data set: cell-based. The protocol:
as §1

`Cn1c(=O)c(S(=O)(=O)c2ccc(F)c(Cl)c2)cc2cnc(Nc3cccc4[nH]ccc34)nc21` [Example 34, 2-(1H-indol-4-ylamino)-6-(3-chloro-4-fluorophenylsulfonyl)-8-methylpyrido[2,3-d]pyrimidin-7(8H)-one] showed a melting point of 315 to 320 °C. For the same compound, the IC50 in data set [1] is 50 to 100 µM. Moreover, the IC50 with DU145 (prostate cancer) was 50 to 100 µM.
On to `C[S+]([O-])c1ncc2cc(S(=O)(=O)c3ccc(Cl)cc3)c(=O)n(C3CCCC3)c2n1` (centres unmarked) [Example 59, 6-(4-chlorophenylsulfonyl)-8-cyclopentyl-2-(methylsulfinyl)pyrido[2,3-d]pyrimidin-7(8H)-one], for which the IC50 in data set [1] was in the range of 1 to 10 µM; with DU145 (prostate cancer), 10 to 25 µM.
For `Cn1c(=O)c(S(=O)(=O)c2ccc(F)c(Cl)c2)cc2cnc(Nc3ccc4[nH]ncc4c3)nc21` [Example 38, 2-(1H-indazol-5-ylamino)-6-(3-chloro-4-fluorophenylsulfonyl)-8-methylpyrido[2,3-d]pyrimidin-7(8H)-one], in that order: 10 to 25 µM and 10 to 25 µM.
In turn, `Cn1c(=O)c(S(=O)(=O)c2ccc(Cl)cc2)cc2cnc(Nc3cccc4[nH]ccc34)nc21` [Example 31, 2-(1H-indol-4-ylamino)-6-(4-chlorophenylsulfonyl)-8-methylpyrido[2,3-d]pyrimidin-7(8H)-one] came in with a melting point of 320 to 324 °C. In addition, in data set [1], the IC50 fell in the range of 1 to 10 µM. The IC50 with DU145 (prostate cancer) fell in the range of 1 to 10 µM.
As for `Cn1c(=O)c(S(=O)(=O)c2ccc(F)c(Cl)c2)cc2cnc(Nc3cnc4[nH]ccc4c3)nc21` [Example 35, 2-(1H-pyrrolo[2,3-b]pyridin-5-ylamino)-6-(3-chloro-4-fluorophenylsulfonyl)-8-methylpyrido[2,3-d]pyrimidin-7(8H)-one], the melting point was in the range of 320 to 325 °C. The half-inhibitory concentration (IC50) in data set [1] was less than 1 µM. Also, the IC50 with DU145 (prostate cancer) is less than 1 µM.
Compound `CC(=O)N1CCN(c2ncc3cc(S(=O)(=O)c4ccc(Cl)cc4)c(=O)n(C)c3n2)CC1` [Example 8, 6-(4-chlorophenylsulfonyl)-2-(4-acetylpiperazin-1-yl)-8-methylpyrido[2,3-d]pyrimidin-7(8H)-one] yielded a melting point of 264 to 268 °C. Also, in data set [1], the IC50 is 50 to 100 µM. For the same compound, the IC50 in the data set with DU145 (prostate cancer) is 50 to 100 µM.
`CN1CCN(c2ccc(Nc3ncc4cc(S(=O)(=O)c5ccccc5)c(=O)n(C5CCCC5)c4n3)cc2)CC1` [Example 64, 2-(4-(4-methylpiperazin-1-yl)phenylamino)-8-cyclopentyl-6-(phenylsulfonyl)pyrido[2,3-d]pyrimidin-7(8H)-one]: the IC50 was 1 to 10 µM in data set [1] and less than 1 µM in the data set on DU145 (prostate cancer).
As to `CN1CCN(c2ccc(Nc3ncc4cc(S(=O)(=O)c5ccc(Cl)cc5)c(=O)n(C5CCCC5)c4n3)cc2)CC1` [Example 58, 2-(4-(4-methylpiperazin-1-yl)phenylamine)-6-(4-chlorophenylsulfonyl)-8-cyclopentylpyrido[2,3-d]pyrimidin-7(8H)-one], the IC50 in data set [1] fell in the range of 1 to 10 µM; in the data set on DU145 (prostate cancer), 10 to 25 µM.
Compound `Cc1ccc(S(=O)(=O)c2cc3cnc(Nc4ccc5cc[nH]c5c4)nc3n(C)c2=O)cc1` [Example 28, 2-(1H-indol-6-ylamino)-8-methyl-6-tosylpyrido[2,3-d]pyrimidin-7(8H)-one] registered a melting point of 334 to 336 °C. In data set [1], the IC50 lay within 10 to 25 µM. Moreover, the IC50 with DU145 (prostate cancer) lay within 10 to 25 µM.
On to `Cn1c(=O)c(S(=O)(=O)c2ccc(Cl)cc2)cc2cnc(Nc3ccc4[nH]ccc4c3)nc21` [Example 6, 2-(1H-indol-5-ylamino)-6-(4-chlorophenylsulfonyl)-8-methylpyrido[2,3-d]pyrimidin-7(8H)-one], for which the melting point was in the range of 316 to 320 °C. For the same compound, the IC50 in data set [1] was less than 1 µM. The 50% inhibitory concentration (IC50) with DU145 (prostate cancer) is less than 1 µM.
For `O=c1c(S(=O)(=O)c2ccc(Cl)cc2)cc2cnc(Nc3ccc4[nH]ccc4c3)nc2n1C1CCCCC1` [Example 51, 2-(1H-indol-5-ylamino)-6-(4-chlorophenylsulfonyl)-8-cyclohexylpyrido[2,3-d]pyrimidin-7(8H)-one], the melting point lay within 305 to 307 °C. Besides, the IC50 in data set [1] was in the range of 10 to 25 µM. Besides, the IC50 with DU145 (prostate cancer) was in the range of 25 to 50 µM.
For `Cn1c(=O)c(S(=O)(=O)c2ccc(Cl)cc2)cc2cnc(Nc3ccc(Cl)cc3)nc21` [Example 3, 2-(4-chlorophenylamino)-6-(4-chlorophenylsulfonyl)-8-methylpyrido[2,3-d]pyrimidin-7(8H)-one], in that order: greater than 300 °C, 10 to 25 µM and 10 to 25 µM.
For `CSc1ncc2cc(S(=O)(=O)c3ccccc3)c(=O)n(C3CCCC3)c2n1` [Example 67, 8-cyclopentyl-2-(methylsulfanyl)-6-(phenylsulfonyl)pyrido[2,3-d]pyrimidin-7(8H)-one], in that order: 184 to 185 °C, 50 to 100 µM and 50 to 100 µM.
For `CCCn1c(=O)c(S(=O)(=O)c2ccccc2)cc2cnc(SC)nc21` [Example 48, 2-(methylsulfanyl)-6-(phenylsulfonyl)-8-propylpyrido[2,3-d]pyrimidin-7(8H)-one], in that order: 231 to 232 °C, 50 to 100 µM and greater than 100 µM.
The compound `COc1ccc(S(=O)(=O)c2cc3cnc(Nc4cccc5[nH]ccc45)nc3n(C)c2=O)cc1` [Example 30, 2-(1H-indol-4-ylamino)-6-(4-methoxyphenylsulfonyl)-8-methylpyrido[2,3-d]pyrimidin-7(8H)-one] yielded a melting point of 289 to 292 °C. For the same compound, in data set [1], the IC50 fell in the range of 1 to 10 µM. Also, the IC50 in the data set on DU145 (prostate cancer) lay within 1 to 10 µM.
In the case of `COc1ccc(Nc2ncc3cc(S(=O)(=O)c4ccccc4)c(=O)n(C4CCCC4)c3n2)cc1` [Example 56, 2-(4-methoxyphenylamino)-8-cyclopentyl-6-(phenylsulfonyl)pyrido[2,3-d]pyrimidin-7(8H)-one], the melting point was determined as 201 °C. In addition, in data set [1], the IC50 was 1 to 10 µM. Further, the IC50 with DU145 (prostate cancer) lay within 25 to 50 µM.
`O=c1c(S(=O)(=O)c2ccc(Cl)cc2)cc2cnc(Nc3cccc4[nH]ccc34)nc2n1C1CCCCC1` [Example 53, 2-(1H-indol-4-ylamino)-6-(4-chlorophenylsulfonyl)-8-cyclohexylpyrido[2,3-d]pyrimidin-7(8H)-one] registered a melting point of 300 to 302 °C. Further, the IC50 in data set [1] lay within 10 to 25 µM. Further, in the data set with DU145 (prostate cancer), the IC50 is greater than 100 µM.
The matching figures for `O=c1c(S(=O)(=O)c2ccccc2)cc2cnc(NC3CCCC3)nc2n1C1CCCC1` [Example 61, 8-cyclopentyl-2-(cyclopentylamino)-6-(phenylsulfonyl)pyrido[2,3-d]pyrimidin-7(8H)-one]: 209 to 210 °C, greater than 100 µM and greater than 100 µM.
`Cc1ccc(S(=O)(=O)c2cc3cnc(Nc4ccc5[nH]ccc5c4)nc3n(C)c2=O)cc1` [Example 17, 2-(1H-indol-5-ylamino)-8-methyl-6-tosylpyrido[2,3-d]pyrimidin-7(8H)-one] had a melting point of 310 to 314 °C. In addition, in data set [1], the IC50 is less than 1 µM. For the same compound, the IC50 in the data set on DU145 (prostate cancer) is less than 1 µM.
As for `O=c1c(S(=O)(=O)c2ccccc2)cc2cnc(Nc3ccc(N4CCOCC4)cc3)nc2n1C1CCCC1` [Example 63, 2-(4-morpholinophenylamino)-8-cyclopentyl-6-(phenylsulfonyl)pyrido[2,3-d]pyrimidin-7(8H)-one], the melting point is 221 to 222 °C. The IC50 in data set [1] lay within 10 to 25 µM. In the data set with DU145 (prostate cancer), the IC50 lay within 10 to 25 µM.
Regarding `O=c1[nH]c2nc(Nc3ccc4[nH]ccc4c3)ncc2cc1S(=O)(=O)c1ccc(F)c(Cl)c1` [Example 46, 2-(1H-indol-5-ylamino)-6-(3-chloro-4-fluorophenylsulfonyl)pyrido[2,3-d]pyrimidin-7(8H)-one], the IC50 was in the range of 10 to 25 µM in data set [1] and 50 to 100 µM in the data set on DU145 (prostate cancer).
The compound `Cn1c(=O)c(S(=O)(=O)c2ccc(F)cc2)cc2cnc(Nc3cccc4[nH]ccc34)nc21` [Example 10, 2-(1H-indol-4-ylamino)-6-(4-fluorophenylsulfonyl)-8-methylpyrido[2,3-d]pyrimidin-7(8H)-one] registered a melting point greater than 350 °C. Moreover, the IC50 in data set [1] is less than 1 µM. Moreover, the IC50 in the data set on DU145 (prostate cancer) was less than 1 µM.
On to `Cn1c(=O)c(S(=O)(=O)c2ccc(F)cc2F)cc2cnc(NCCN3CCOCC3)nc21` [Example 42, 6-(2,4-difluorophenylsulfonyl)-2-(2-morpholinoethylamino)-8-methylpyrido[2,3-d]pyrimidin-7(8H)-one], for which the IC50 (in data set [1]; with DU145 (prostate cancer)) was 50 to 100 µM throughout.
Turning to `Cn1c(=O)c(S(=O)(=O)c2ccc(F)cc2F)cc2cnc(Nc3ccc4c(c3)CC(=O)N4)nc21` [Example 41, 6-(2,4-difluorophenylsulfonyl)-2-(2-oxoindolin-5-ylamino)-8-methylpyrido[2,3-d]pyrimidin-7(8H)-one], the IC50 (in data set [1]; in the data set with DU145 (prostate cancer)) was 50 to 100 µM throughout.
Turning to `C[S+]([O-])c1ncc2cc(S(=O)(=O)c3ccccc3)c(=O)n(C3CCCC3)c2n1` (centres unmarked) [Example 66, 8-cyclopentyl-2-(methylsulfinyl)-6-(phenylsulfonyl)pyrido[2,3-d]pyrimidin-7(8H)-one], the IC50 in data set [1] was 10 to 25 µM; in the data set on DU145 (prostate cancer), 50 to 100 µM.
On to `Cn1c(=O)c(S(=O)(=O)c2ccc(O)cc2)cc2cnc(Nc3ccc4[nH]ccc4c3)nc21` [Example 43, 2-(1H-indol-5-ylamino)-6-(4-hydroxyphenylsulfonyl)-8-methylpyrido[2,3-d]pyrimidin-7(8H)-one], for which the IC50 (in data set [1]; in the data set with DU145 (prostate cancer)) was less than 1 µM each time.
As for `Cn1c(=O)c(S(=O)(=O)c2ccc(F)c(Cl)c2)cc2cnc(Nc3ccc4c(c3)CC(=O)N4)nc21` [Example 36, 2-(2-oxoindolin-5-ylamino)-6-(3-chloro-4-fluorophenylsulfonyl)-8-methylpyrido[2,3-d]pyrimidin-7(8H)-one], the IC50 (in data set [1]; with DU145 (prostate cancer)) was 10 to 25 µM throughout.
